Ten compounds from ChEMBL document CHEMBL1201862, “PubChem BioAssay data set” (2004) can be followed below.

In assay [1] the target is T1, ATP-dependent translocase ABCB1 (Homo sapiens, UniProt P08183). The experiment in a line: ABCG2 efflux pump inhibitor potency, dose response, Ig-MXP3 cells, JC-1, flow cytometry, set 2 (AID 504566).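 Note: flow cytometry median green fluorescence of retained JC-1 dye; potency of efflux pump inhibition measured as rising substrate retention.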 Format: functional. To be noted: read-out: EC50_MICROM_.
The target of assay [2] is T1, ATP-dependent translocase ABCB1. The experiment in a line: ABCB1 efflux inhibitor potency, dose response, Jurkat-DNR cells, JC-1, flow cytometry, set 2 (AID 504569).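 Note: potency of pump inhibitors that raise cellular JC-1 green fluorescence up to the nicardipine level.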 It is filed as functional. To be noted: read-out: EC50_MICROM_.
Another assay concerns the target Melanocortin receptor 4 (Homo sapiens, UniProt P32245). In words: MC4R antagonist potency on cAMP, dose response, cell-based, TR-FRET, biased antagonists (AID 602298).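 Note: antagonist potency against agonist-stimulated cAMP production.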 Format: functional.
Assay [3] can be described thus: nonselective inhibitors of cellular cAMP signaling, dose response, counter-screen for MC4R biased antagonist project, cell-based, TR-FRET cAMP detection (AID 602305).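 Note: U2OS cells stimulated with forskolin near its EC80 as the cAMP inducer; potency is for inhibition of forskolin-stimulated cAMP signaling.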 It is filed as functional.
Assay [4] concerns the target T2, RNA-binding protein pos-1 (Caenorhabditis elegans, UniProt G5EF15).
T2 sequence (G5EF15 whole entry): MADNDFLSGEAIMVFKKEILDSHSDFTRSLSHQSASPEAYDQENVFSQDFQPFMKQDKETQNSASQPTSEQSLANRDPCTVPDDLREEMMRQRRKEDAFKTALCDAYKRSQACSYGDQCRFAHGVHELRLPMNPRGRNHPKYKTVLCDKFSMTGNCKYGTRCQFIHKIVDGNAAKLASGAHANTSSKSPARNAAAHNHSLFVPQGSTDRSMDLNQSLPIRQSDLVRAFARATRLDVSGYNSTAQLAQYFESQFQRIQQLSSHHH
The experiment in a line: inhibitors of POS-1/mex-3 RNA binding, dose response, biochemical, fluorescence polarization (AID 1964).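 Note: purified POS-1 fused to maltose binding protein made in E. coli; potency of compounds blocking POS-1 binding to fluorescent RNA.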

The target of assay [5] is T3, Zinc finger protein mex-5 (Caenorhabditis elegans, UniProt Q9XUB2).
T3 sequence (Q9XUB2 whole entry): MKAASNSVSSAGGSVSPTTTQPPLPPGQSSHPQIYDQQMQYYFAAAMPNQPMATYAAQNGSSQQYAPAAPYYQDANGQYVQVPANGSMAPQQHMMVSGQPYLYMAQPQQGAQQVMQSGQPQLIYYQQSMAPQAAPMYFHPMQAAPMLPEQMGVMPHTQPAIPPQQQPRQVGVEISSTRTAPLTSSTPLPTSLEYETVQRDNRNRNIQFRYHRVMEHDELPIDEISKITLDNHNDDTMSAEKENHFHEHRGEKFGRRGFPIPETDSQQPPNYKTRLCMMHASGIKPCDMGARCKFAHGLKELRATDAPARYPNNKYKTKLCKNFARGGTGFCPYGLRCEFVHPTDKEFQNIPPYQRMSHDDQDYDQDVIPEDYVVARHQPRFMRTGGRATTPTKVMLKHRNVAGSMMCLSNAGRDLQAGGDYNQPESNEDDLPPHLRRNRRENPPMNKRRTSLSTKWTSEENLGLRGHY
The experiment in a line: MEX-5/TCR-2 RNA interaction inhibitors, dose response, biochemical, C. elegans, fluorescence polarization (AID 1960).

Another assay deals with Large T antigen (Simian virus 40, UniProt P03070). Format: functional, Betapolyomavirus macacae.
In another assay the target is T4, ORF 73 (Human herpesvirus 8, UniProt O40947).
T4 sequence (O40947 whole entry): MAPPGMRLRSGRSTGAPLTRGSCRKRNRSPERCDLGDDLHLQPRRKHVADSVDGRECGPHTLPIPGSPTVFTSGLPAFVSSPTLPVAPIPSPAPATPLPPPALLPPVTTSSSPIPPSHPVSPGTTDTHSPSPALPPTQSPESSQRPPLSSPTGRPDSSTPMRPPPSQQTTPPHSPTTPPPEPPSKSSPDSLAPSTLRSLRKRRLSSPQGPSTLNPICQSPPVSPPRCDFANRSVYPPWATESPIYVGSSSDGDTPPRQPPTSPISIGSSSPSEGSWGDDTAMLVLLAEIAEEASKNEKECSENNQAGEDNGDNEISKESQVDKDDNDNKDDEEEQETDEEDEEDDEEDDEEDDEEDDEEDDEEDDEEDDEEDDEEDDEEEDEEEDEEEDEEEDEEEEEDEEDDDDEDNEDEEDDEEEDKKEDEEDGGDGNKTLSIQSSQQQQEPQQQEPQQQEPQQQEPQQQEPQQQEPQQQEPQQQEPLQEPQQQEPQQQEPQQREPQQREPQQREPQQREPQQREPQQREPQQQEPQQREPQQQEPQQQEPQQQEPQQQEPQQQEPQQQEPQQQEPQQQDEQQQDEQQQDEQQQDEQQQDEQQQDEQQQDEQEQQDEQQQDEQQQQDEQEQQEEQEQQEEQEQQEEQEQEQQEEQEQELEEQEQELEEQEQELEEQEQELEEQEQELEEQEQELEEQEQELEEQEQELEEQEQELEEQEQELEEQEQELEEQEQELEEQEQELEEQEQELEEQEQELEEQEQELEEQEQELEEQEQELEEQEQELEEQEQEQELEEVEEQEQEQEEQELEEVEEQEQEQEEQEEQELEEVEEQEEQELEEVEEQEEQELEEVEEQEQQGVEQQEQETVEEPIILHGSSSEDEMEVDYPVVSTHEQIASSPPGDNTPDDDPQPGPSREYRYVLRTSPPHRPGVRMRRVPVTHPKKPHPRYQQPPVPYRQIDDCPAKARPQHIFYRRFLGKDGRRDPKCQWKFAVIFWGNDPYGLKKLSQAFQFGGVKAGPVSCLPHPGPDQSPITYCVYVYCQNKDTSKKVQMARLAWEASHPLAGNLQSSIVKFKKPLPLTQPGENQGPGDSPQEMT
The experiment in a line: inhibitors of C-LANA binding to LBS DNA, dose response, biochemical, fluorescence polarization, cherry-picked samples (AID 504725).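 Note: fluorescence polarization of a labeled DNA duplex reporting LANA DNA binding; potency is for inhibitors that block LANA binding to the DNA.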 Set-up: species or system Human gammaherpesvirus 8.

The target of the next assay is T5, Cysteine protease ATG4B (Homo sapiens, UniProt Q9Y4P1).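 Note: Fluorescence-based dose-response confirmation assay measuring inhibition of ATG4B activity.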
T5 sequence (Q9Y4P1 whole entry): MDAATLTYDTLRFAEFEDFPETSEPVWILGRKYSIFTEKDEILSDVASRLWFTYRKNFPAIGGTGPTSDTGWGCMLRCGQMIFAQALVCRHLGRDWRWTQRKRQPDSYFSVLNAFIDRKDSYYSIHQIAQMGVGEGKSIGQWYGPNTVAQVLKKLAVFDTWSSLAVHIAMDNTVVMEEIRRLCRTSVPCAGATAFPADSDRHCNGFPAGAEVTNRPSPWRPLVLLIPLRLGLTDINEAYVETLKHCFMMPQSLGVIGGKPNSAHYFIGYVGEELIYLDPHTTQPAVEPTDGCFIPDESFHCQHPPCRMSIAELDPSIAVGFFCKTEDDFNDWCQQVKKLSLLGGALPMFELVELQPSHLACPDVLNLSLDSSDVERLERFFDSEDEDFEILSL
Format: functional.

For the next assay, the target named is Phospholipase A2 (Homo sapiens, UniProt P04054). It is filed as functional.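 Note: confirmatory dose-response counterscreen on phospholipase A2, testing hits that came from an ultra-high-throughput screen for ATG4B inhibitors.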
The target in another assay is Genome polyprotein (dengue virus type 2, UniProt P29990). In words: Dengue-2 NS5 methyltransferase inhibitors, primary screen, biochemical, confirmation dose response (AID 588689). It is filed as functional.
Assay [6] deals with 26S proteasome non-ATPase regulatory subunit 14 (Homo sapiens, UniProt O00487). In words: inhibition of proteasome subunit RPN11 – biochemical, fluorescence polarization, uHTS hits, confirmation (AID 602368). Format: functional.
Assay [7] has as its target 72 kDa type IV collagenase (Homo sapiens, UniProt P08253). In words: Dose Response validation of uHTS RPN11 inhibitor hits using a MMP-2 Fluorescence assay. It is filed as functional.
The next assay deals with Prothrombin (Bos taurus, UniProt P00735). The experiment in a line: thrombin inhibition, dose response, biochemical, fluorescence polarization, uHTS hits (AID 602369). It is filed as functional.
In assay [8] the target is T6, Small ubiquitin-related modifier 1 (Homo sapiens, UniProt P63165). In words: inhibitors of SUMO1 peptide binding, dose response, biochemical, fluorescence polarization, uHTS hits (AID 624382). It is filed as functional. To be noted: read-out: IC50_Mean.
For assay [9], the target named is T6, Small ubiquitin-related modifier 1. In words: inhibitors of SUMO1 partner interactions, dose response, biochemical, FRET (AID 624383). It is filed as functional. The conditions noted are these: read-out: IC50_Mean.
In assay [10] the target is Hepatocyte nuclear factor 4-alpha (Homo sapiens, UniProt P41235). It is filed as functional, cell-based.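 Note: biochemical luminescence-based dose-response counterscreen measuring inhibition of HNF4 dimerization, run alongside a screen for blockers of ABHD5–perilipin-5 interaction; split luciferase complementation of HNF4 fusion proteins in cell lysate measuring dimerization.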
The next assay addresses Paired box protein Pax-8 (Homo sapiens, UniProt Q06710). In words: inhibitors of PAX8-driven TPO luciferase reporter, dose response, RMG-I cells, cherry-pick (AID 687027).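 Note: luciferase reporter driven by Pax8 target thyroperoxidase promoter measured by SteadyGlo luminescence.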 Format: functional, cell-based.
The target of assay [11] is T7, Sentrin-specific protease 1 (Homo sapiens, UniProt Q9P0U3). In words: potency of human SENP1 inhibitors, dose response, biochemical, kinetic FRET (AID 651697). To be noted: read-out: IC50_Mean. Format: functional.
The target in assay [12] is T7, Sentrin-specific protease 1. The experiment in a line: Dose response confirmation of small molecule inhibitors of the catalytic domain of the SUMO protease, SENP1 in a FRET assay. Format: functional. The conditions noted are these: read-out: IC50_Mean.
The target of assay [13] is ALK tyrosine kinase receptor (Homo sapiens, UniProt Q9UM73). Format: functional.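 Note: ALK tested as one member of a kinase panel screen.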
The target of another assay is Aurora kinase A (Homo sapiens, UniProt O14965). It is filed as functional.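 Note: value from the Navigating the Kinome kinase panel profiling, panel entry STK6.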
The target of assay [14] is Tyrosine-protein kinase JAK3 (Homo sapiens, UniProt P52333). It is filed as functional.
Assay [15] deals with DNA (cytosine-5)-methyltransferase 1 (Homo sapiens, UniProt P26358). In words: DNMT1 methyltransferase inhibitors, confirmation, biochemical, fluorescent molecular beacon (AID 602386). Format: functional.
The target of assay [16] is Dual specificity protein kinase CLK2 (Homo sapiens, UniProt P49760). It is filed as functional.
Assay [17] has as its target G protein-coupled receptor kinase 5 (Homo sapiens, UniProt P34947). The experiment in a line: Navigating the Kinome. Panel member name: GPRK5. It is filed as functional.
The target of assay [18] is Mitochondrial peptide methionine sulfoxide reductase (Bos taurus, UniProt P54149). Format: functional.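 Note: absorbance read-out, biochemical high-throughput dose-response screen for MsrA inhibitors, confirmatory; recombinant bovine MsrA coupled to E. coli TrxB with NADPH and selenocystamine; potency is for inhibitors of MsrA activity on DMSO substrate.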

SMILES strings stand for the structures. Calls of active or inactive are those of the source. Some results are limits rather than exact numbers.

T7 sequence (Q9P0U3 whole entry, the tested form may be a part): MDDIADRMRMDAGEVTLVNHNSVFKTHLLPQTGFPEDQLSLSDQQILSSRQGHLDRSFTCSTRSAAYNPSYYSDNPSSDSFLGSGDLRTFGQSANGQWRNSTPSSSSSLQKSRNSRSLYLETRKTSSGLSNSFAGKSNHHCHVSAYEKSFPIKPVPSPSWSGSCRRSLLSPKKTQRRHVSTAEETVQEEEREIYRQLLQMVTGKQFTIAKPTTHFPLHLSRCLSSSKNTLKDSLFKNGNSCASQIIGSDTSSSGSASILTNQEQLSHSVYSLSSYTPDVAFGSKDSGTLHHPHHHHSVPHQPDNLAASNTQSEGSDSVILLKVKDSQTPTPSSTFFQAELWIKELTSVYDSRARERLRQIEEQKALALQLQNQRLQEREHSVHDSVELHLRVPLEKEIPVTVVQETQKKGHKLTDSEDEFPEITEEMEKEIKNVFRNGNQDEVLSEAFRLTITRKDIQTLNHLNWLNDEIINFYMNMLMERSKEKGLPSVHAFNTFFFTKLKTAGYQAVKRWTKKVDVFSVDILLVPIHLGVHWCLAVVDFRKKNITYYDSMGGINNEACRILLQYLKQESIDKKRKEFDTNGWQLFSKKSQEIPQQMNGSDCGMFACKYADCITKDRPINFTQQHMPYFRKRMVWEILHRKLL
T6 sequence (P63165 whole entry): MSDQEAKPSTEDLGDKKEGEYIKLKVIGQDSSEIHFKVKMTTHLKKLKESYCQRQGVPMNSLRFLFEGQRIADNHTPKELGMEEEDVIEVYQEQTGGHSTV
T1 sequence (P08183 whole entry): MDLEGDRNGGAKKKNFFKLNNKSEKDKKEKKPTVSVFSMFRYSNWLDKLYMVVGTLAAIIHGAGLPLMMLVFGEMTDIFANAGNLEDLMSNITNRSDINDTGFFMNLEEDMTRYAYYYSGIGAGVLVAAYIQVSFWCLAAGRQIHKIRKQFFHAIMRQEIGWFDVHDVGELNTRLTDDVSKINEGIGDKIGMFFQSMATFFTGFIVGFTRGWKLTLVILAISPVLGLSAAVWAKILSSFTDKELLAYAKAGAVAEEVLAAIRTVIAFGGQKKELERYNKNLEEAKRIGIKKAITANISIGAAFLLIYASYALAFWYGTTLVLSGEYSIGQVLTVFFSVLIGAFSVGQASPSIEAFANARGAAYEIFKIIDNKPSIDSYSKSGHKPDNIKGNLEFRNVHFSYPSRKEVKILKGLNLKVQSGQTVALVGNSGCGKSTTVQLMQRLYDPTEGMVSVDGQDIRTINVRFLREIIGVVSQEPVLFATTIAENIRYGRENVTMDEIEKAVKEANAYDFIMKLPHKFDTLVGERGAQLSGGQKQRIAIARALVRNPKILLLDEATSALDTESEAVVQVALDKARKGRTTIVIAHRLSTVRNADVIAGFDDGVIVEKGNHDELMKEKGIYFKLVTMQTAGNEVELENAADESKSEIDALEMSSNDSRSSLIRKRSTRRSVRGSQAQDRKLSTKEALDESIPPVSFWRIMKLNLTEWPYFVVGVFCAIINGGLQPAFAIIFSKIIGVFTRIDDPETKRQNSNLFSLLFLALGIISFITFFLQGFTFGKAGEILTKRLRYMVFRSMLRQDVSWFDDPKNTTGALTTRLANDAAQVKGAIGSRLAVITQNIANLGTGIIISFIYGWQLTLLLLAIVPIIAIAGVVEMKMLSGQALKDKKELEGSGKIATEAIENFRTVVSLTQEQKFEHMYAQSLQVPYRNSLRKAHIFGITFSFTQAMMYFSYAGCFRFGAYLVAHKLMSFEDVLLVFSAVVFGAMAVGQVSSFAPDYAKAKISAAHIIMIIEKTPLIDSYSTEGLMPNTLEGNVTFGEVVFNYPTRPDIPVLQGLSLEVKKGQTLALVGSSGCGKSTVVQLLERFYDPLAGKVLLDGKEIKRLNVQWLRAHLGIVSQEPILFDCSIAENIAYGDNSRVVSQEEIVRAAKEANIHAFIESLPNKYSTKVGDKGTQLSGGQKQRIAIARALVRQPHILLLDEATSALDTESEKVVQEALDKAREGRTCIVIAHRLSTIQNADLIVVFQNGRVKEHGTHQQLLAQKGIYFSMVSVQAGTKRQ
Chain of Melanocortin receptor 4 (P32245 whole entry): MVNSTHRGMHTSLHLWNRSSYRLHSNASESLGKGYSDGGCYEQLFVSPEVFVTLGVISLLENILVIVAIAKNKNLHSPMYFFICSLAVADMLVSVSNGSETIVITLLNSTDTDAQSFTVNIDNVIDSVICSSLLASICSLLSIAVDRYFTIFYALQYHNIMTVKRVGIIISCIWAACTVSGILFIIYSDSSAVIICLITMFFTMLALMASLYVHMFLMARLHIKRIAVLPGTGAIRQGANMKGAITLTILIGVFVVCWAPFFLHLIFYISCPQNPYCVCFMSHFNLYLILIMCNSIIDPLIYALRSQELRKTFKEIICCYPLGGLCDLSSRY
Chain of Tyrosine-protein kinase JAK3 (P52333 whole entry): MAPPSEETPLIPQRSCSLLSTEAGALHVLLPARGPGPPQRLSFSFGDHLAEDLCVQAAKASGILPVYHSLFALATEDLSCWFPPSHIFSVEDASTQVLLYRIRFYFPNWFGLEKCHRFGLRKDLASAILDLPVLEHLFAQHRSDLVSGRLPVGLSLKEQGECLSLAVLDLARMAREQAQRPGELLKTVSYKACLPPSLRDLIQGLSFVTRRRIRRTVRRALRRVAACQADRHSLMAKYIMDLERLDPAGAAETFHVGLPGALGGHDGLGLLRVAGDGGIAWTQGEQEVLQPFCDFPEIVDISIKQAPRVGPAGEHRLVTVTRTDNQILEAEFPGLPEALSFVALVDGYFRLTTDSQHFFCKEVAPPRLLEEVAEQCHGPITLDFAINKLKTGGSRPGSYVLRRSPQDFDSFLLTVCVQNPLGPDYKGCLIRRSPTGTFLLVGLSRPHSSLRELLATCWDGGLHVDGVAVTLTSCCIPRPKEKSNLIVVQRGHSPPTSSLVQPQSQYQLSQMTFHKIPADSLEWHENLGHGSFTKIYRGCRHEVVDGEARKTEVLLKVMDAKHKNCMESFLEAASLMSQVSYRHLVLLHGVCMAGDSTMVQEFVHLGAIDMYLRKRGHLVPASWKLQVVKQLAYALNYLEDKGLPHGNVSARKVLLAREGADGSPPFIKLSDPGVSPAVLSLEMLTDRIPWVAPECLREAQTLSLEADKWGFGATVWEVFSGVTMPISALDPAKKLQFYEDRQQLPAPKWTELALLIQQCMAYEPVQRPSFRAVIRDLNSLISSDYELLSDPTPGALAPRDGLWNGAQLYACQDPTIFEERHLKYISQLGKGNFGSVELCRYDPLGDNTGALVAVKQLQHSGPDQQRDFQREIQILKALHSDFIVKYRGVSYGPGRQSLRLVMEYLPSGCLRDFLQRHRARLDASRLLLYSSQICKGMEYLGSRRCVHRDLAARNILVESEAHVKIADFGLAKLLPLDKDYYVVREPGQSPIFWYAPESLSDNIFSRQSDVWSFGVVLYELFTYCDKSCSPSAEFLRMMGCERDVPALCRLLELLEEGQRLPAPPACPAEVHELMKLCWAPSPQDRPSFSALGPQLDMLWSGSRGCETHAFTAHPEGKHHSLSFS
Chain of Large T antigen (P03070 whole entry): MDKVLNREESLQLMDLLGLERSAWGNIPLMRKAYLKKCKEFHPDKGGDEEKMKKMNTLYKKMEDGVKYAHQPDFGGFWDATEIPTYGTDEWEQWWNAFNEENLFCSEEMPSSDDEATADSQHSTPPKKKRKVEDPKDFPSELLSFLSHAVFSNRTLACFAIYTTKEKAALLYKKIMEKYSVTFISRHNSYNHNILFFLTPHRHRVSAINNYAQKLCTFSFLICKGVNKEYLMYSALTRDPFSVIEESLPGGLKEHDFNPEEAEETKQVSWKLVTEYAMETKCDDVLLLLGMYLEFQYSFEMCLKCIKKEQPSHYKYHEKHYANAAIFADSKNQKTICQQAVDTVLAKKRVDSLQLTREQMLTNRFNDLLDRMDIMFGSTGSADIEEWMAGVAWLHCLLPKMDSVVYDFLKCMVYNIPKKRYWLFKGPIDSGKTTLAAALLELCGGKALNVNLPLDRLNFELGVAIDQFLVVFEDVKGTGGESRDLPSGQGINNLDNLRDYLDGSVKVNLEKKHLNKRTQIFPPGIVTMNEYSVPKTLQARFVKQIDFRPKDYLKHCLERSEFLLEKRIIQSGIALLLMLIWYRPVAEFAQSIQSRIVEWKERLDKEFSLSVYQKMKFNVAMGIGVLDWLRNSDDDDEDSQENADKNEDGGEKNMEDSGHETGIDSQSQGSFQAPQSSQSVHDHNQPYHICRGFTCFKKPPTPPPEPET
Chain of Phospholipase A2 (P04054 whole entry): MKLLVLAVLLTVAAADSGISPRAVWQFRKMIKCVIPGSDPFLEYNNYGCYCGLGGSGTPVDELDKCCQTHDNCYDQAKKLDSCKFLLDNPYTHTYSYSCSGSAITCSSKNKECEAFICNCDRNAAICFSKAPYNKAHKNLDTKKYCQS
Chain of 72 kDa type IV collagenase (P08253 whole entry): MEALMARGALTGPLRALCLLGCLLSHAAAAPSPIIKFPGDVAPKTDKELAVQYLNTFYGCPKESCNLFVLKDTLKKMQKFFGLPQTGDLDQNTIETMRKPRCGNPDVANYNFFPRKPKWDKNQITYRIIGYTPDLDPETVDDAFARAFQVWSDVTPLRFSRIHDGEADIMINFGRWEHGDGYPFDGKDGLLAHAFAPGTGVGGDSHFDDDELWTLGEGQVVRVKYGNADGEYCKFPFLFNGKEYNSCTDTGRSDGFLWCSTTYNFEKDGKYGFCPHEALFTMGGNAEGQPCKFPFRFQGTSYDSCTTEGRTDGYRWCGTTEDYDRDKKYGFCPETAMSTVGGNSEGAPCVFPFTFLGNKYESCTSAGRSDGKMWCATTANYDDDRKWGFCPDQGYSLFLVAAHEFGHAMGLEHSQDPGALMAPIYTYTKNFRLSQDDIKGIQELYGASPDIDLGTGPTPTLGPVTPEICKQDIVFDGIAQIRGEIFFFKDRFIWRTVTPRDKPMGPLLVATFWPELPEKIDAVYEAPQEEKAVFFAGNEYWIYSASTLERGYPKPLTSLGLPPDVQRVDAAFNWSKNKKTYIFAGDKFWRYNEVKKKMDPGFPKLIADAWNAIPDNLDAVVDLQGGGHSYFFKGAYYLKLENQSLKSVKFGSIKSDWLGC

Take `O=C(c1cccc(Cl)c1)N1CCN(c2cc(-c3ccccc3)nc3cc(-c4cccc(Cl)c4)nn23)CC1`: the EC50 in [1] was 2.66 µM (active); in [2], 3.16 µM (active).
Take `COC(=O)c1sc(N)c(C(=O)OC)c1COC(=O)CNS(=O)(=O)c1ccc(C)c(C)c1`: the IC50 (at Melanocortin receptor 4; in assay [3]) was > 64.6 µM (inactive) in each case.
Take `O=c1[nH]c(=S)[nH]c2c1C(c1ccc(Br)cc1)c1c([nH]c(=S)[nH]c1=O)O2`: the EC50 in assay [4] is 4.86 µM (inconclusive); in [5] it was 4.53 µM (active). Further, the IC50 is 21.4 µM (active) at Large T antigen; 2.96 µM (active) at Cysteine protease ATG4B; 29.2 µM (inactive) on Phospholipase A2; 73.7 µM (active) at Genome polyprotein; 14.5 µM (active) in assay [6]; 0.0169 µM (active) in assay [7]. Moreover, the IC50 at Prothrombin was 20.8 µM (active); in [8], > 66.6 µM (inactive); in [9], 10.3 µM (active). Besides, the AC50 on ORF 73 was 281 µM (active).
As to `C#CCN(C[C@@H]1[C@@H](OC(=O)NCc2ccc(OC)c(OC)c2)[C@@H](OC(=O)NCc2ccc(OC)c(OC)c2)Cn2c(=O)ccc(=O)n21)S(=O)(=O)c1ccc(C)cc1`, the IC50 in [10] is 32.1 µM (inactive). Further, on Paired box protein Pax-8, the AC50 was 3.91 µM (active).
In the case of `Nc1ccc2c(c1)-c1ccc(F)cc1C2=O`, the IC50 in assay [11] is 76.9 µM (inactive); in [12], 19.4 µM (active).
For `Cc1cccc(NC(=O)Nc2ccc(-c3csc4c(-c5ccc(NC(=O)CCCN(C)C)cc5)cnc(N)c34)cc2)c1`, the Ki is 0.398 µM (active) in assay [13] and 0.0501 µM (active) at Aurora kinase A.
`CC(C)CC(NC(=O)c1cccc(-n2nc(C(C)(C)C)cc2NC(=O)Nc2cccc3ccccc23)c1)C(N)=O` (configuration not stated): the Ki in [14] was 5.01 µM (active).
For `CCOC(=O)C(NC(=O)CC(C)C)(Nc1sc2c(c1C(N)=O)CCCC2)C(F)(F)F` (configuration not stated), in [15], the IC50 was > 99 µM (inactive).
`COc1cc2c(Nc3ccc(Br)cc3F)ncnc2cc1OCC1CCN(C)CC1` [VANDETANIB]: the figures for the Ki in [16] and in [17] were > 2 µM (inactive) and > 3.98 µM (inactive), respectively.
As to `C/C(=N\Nc1ccc(C(F)(F)F)cc1[N+](=O)[O-])C1CC1`, the IC50 in [18] was 155 µM (inactive).
